Key:
ALK2/ACVR1 = target: T1, ALK2/ACVR1 (Homo sapiens, UniProt Q04771); test: BMP Type 1 receptor assay, ALK2/ACVR1; format: biochemical
T1 sequence (Q04771 21-509): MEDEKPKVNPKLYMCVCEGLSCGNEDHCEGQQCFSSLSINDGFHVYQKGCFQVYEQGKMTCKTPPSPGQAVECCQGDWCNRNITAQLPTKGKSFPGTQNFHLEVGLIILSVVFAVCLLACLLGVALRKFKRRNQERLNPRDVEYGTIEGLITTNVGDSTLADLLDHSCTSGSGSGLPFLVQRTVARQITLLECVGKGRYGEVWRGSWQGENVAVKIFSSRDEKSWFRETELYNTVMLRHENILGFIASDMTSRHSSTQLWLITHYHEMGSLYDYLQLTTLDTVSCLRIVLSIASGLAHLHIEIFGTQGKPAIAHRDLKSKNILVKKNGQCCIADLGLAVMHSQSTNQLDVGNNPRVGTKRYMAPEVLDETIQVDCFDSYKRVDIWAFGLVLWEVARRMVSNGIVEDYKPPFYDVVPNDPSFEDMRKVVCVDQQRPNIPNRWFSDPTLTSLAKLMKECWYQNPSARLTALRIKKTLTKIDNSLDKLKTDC

ALK1/ACVR1 = ALK1/ACVR1 (Homo sapiens, UniProt P37023); test: BMP Type 1 receptor assay, ALK1/ACVR1; format: biochemical
ALK1/ACVR1, sequence (P37023 22-503): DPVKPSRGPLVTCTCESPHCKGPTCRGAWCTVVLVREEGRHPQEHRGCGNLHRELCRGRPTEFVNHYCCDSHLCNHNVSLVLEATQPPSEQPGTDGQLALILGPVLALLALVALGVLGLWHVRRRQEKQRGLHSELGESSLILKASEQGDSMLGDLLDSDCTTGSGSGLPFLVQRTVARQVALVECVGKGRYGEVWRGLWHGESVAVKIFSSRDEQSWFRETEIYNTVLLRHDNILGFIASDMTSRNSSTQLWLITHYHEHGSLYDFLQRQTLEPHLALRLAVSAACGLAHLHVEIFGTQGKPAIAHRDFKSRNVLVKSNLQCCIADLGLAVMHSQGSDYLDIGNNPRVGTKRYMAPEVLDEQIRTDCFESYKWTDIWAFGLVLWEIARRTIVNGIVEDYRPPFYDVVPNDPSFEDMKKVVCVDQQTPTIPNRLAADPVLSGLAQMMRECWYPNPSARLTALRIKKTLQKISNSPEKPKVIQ

ALK3/BMPRR1A = ALK3/BMPRR1A (Homo sapiens, UniProt P36894); test: BMP Type 1 receptor assay, ALK3/BMPRR1A; format: biochemical
ALK3/BMPRR1A, sequence (P36894 24-532): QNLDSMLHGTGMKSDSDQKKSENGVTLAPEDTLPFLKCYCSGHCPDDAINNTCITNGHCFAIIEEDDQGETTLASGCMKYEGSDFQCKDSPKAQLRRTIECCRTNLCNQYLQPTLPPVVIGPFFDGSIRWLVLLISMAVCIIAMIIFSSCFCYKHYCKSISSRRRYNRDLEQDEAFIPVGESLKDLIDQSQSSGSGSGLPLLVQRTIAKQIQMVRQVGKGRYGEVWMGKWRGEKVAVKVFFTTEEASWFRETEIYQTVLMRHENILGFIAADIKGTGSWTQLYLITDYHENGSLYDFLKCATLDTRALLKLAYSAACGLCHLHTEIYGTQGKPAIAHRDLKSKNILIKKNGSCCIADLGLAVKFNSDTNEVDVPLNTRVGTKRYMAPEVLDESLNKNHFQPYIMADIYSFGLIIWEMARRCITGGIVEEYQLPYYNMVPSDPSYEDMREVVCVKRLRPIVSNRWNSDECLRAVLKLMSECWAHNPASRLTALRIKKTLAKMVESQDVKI

ALK5/TGFBR1 = target: T2, ALK5/TGFBR1 (Homo sapiens, UniProt P36897); test: BMP Type 1 receptor assay, ALK5/TGFBR1; format: biochemical
T2 sequence (P36897 34-503): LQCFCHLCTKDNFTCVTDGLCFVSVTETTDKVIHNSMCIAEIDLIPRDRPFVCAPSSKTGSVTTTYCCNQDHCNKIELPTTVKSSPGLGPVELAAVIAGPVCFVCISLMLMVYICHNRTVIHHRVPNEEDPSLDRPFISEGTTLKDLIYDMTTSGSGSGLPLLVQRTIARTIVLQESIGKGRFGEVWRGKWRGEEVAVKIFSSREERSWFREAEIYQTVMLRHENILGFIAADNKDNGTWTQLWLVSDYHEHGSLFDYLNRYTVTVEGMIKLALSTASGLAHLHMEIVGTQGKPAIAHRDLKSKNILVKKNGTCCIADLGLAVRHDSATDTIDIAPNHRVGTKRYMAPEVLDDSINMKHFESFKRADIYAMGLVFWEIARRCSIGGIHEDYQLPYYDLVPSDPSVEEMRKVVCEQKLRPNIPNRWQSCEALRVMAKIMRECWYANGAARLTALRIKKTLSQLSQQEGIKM

ALK6/BMPR1B = ALK6/BMPR1B (Homo sapiens, UniProt O00238); test: BMP Type 1 receptor assay, ALK6/BMPR1B; format: biochemical
ALK6/BMPR1B, sequence (O00238 14-502): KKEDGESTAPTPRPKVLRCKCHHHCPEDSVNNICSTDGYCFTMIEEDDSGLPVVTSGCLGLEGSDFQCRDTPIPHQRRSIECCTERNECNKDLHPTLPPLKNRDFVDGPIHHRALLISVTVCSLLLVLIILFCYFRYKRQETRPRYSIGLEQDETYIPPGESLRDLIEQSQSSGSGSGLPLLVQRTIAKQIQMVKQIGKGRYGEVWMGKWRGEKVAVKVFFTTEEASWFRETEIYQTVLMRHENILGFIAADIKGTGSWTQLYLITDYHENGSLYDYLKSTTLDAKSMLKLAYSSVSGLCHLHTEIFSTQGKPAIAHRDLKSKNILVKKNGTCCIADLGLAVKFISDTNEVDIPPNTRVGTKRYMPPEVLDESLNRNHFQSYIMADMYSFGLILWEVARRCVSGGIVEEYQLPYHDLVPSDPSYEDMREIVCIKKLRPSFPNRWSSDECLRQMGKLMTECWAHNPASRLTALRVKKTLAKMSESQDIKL

BMP4 = BMP4 cell assay (BMP reporter); format: cell-based; conditions: Table 2

Compound	IC50 (ALK2/ACVR1) [nM]	IC50 (ALK3/BMPRR1A) [nM]	IC50 (ALK5/TGFBR1) [nM]	further results
CC(C)Oc1ccc(-c2ccn3c(-c4ccnc(Cl)c4)cnc3c2)cc1 [Entry 25, 3-(2-chloropyridin-4-yl)-7-(4-isopropoxyphenyl)imidazo[1,2-a]pyridine]	155	118	13600	IC50 (ALK1/ACVR1): 87 nM; IC50 (ALK6/BMPR1B): 340 nM
CN1CCN(c2ccc(-c3ccn4c(-c5ccnc6ccsc56)cnc4c3)cc2)CC1 [Entry 62, 7-(7-(4-(4-methylpiperazin-1-yl)phenyl)imidazo[1,2-a]pyridin-3-yl) thieno[3,2-b]pyridine]		50.8		
CN1CCN(c2ccc(-c3ccn4c(-c5ccnc6ccccc56)cnc4c3)cc2)CC1 [Entry 21, 4-(7-(4-(4-methylpiperazin-1-yl)phenyl)imidazo[1,2-a]pyridin-3-yl)quinoline]		7.9	3960	IC50 (ALK6/BMPR1B): 11 nM
c1ccc2c(-c3cnc4cc(-c5ccc(OCCN6CCOCC6)cc5)ccn34)ccnc2c1 [Example 1, 4-(2-(4-(3-(quinolin-4-yl)imidazo[1,2-a]pyridin-7-yl)phenoxy)ethyl)morpholine]				IC50 (BMP4): 62 nM
Cc1cc(-c2cnc3cc(-c4ccc(N5CCN(C)CC5)cc4)ccn23)c2ccccc2n1 [Entry 51, 2-methyl-4-(7-(4-(4-methylpiperazin-1-yl)phenyl)imidazo[1,2-a]pyridin-3-yl)quinoline]	26.5			
CC(C)Oc1ccc(-c2ccn3c(-c4ccnc(F)c4)cnc3c2)cc1 [Entry 26, 3-(2-fluoropyridin-4-yl)-7-(4-isopropoxyphenyl)imidazo[1,2-a]pyridine]	265		> 100000	
CC(C)Oc1ccc(-c2ccn3c(-c4cn[nH]c4)cnc3c2)cc1 [Entry 42, 7-(4-isopropoxyphenyl)-3-(1H-pyrazol-4-yl)imidazo[1,2-a]pyridine]	1970	92	> 100000	IC50 (ALK1/ACVR1): 494 nM; IC50 (ALK6/BMPR1B): 895 nM
CC(C)Oc1ccc(-c2cc3ncc(-c4ccnc5ccccc45)n3cn2)cc1				IC50 (BMP4): 8100 nM
c1ccc(-c2cnc3cc(-c4ccc(OCCN5CCOCC5)cc4)ccn23)cc1 [Entry 30, 4-(2-(4-(3-phenylimidazo[1,2-a]pyridin-7-yl)phenoxy)ethyl)morpholine]	645		> 100000	
Cc1cc(-c2cnc3cc(-c4ccc(OC(C)C)cc4)ccn23)ccn1 [Entry 45, 7-(4-isopropoxyphenyl)-3-(2-methylpyridin-4-yl)imidazo[1,2-a]pyridine]	149		3490	
c1ccc2c(-c3cnc4cc(-c5ccc6c(c5)OCCO6)ccn34)ccnc2c1 [drawing 207]				IC50 (BMP4): 2890 nM
CN1CCN(c2ccc(-c3ccn4c(-c5csc6nccnc56)cnc4c3)cc2)CC1 [Entry 60, 7-(7-(4-(4-methylpiperazin-1-yl)phenyl)imidazo[1,2-a]pyridin-3-yl)thieno [2,3-b]pyrazine]		40.1		
Cc1cc(-c2cnc3cc(-c4ccc(N5CCN(C)CC5)cc4)ccn23)ccn1 [Entry 67, 7-(4-(4-methylpiperazin-1-yl)phenyl)-3-(2-methylpyridin-4-yl)imidazo[1,2-a]pyridine]	20			
c1ccc2c(-c3cnc4cc(-c5ccc6c(c5)OCCO6)ccn34)ccnc2c1 [Entry 5, 4-(7-(2,3-dihydrobenzo[b][1,4]dioxin-6-yl)imidazo[1,2-a]pyridin-3-yl)quinoline]	270			
CN1CCN(c2ccc(-c3ccn4c(-c5ccncc5)cnc4c3)cc2)CC1 [Entry 66, 7-(4-(4-methylpiperazin-1-yl)phenyl)-3-(pyridin4-yl)imidazo[1,2-a]pyridine]	46			

— patent US20200054643A1, “FUSED HETEROCYCLIC COMPOUNDS AS SELECTIVE BMP INHIBITORS” (Vanderbilt University, priority 2017, published 2020)
